In PMC12669040, “Tumour-specific STING agonist synthesis via a two-component prodrug system” (Nature Chemistry, 2025):
Where “and” joins values, the source holds several entries; their conditions need not be identical. Equal entries are not always repeated. Where two headings read alike, the source gives them in different places.

What was measured:
[1] = system: THP-1 Lucia ISG cells (interferon pathway); test: Potency test of purified dimers on THP-1 Lucia ISG reporter cells; type: cell-based, human; conditions: for Raw readings: replicates 1-3; for fold induction at 0.000508053 µM / fold induction at 0.00152416 µM / fold induction at 0.00457247 µM / fold induction at 0.0137174 µM / fold induction at 0.0411523 µM / fold induction at 0.123457 µM / fold induction at 0.37037 µM / fold induction at 1.11111 µM / fold induction at 3.33333 µM / fold induction at 10 µM / EC50: Homo sapiens, THP1-Lucia ISG, 24 h; for fold induction at 0.000508053 µM: Concentration 0.508053 nM; for fold induction at 0.000508053 µM / fold induction at 0.00152416 µM / fold induction at 0.00457247 µM / fold induction at 0.0137174 µM / fold induction at 0.0411523 µM / fold induction at 0.123457 µM / fold induction at 0.37037 µM / fold induction at 1.11111 µM / fold induction at 3.33333 µM / fold induction at 10 µM: three replicates, read-out: Processed reporter response per replicate (reading relative to DMSO); for fold induction at 0.00152416 µM: Concentration 1.52416 nM; for fold induction at 0.00457247 µM: Concentration 4.57247 nM; for fold induction at 0.0137174 µM: Concentration 13.7174 nM; for fold induction at 0.0411523 µM: Concentration 41.1523 nM; for fold induction at 0.123457 µM: Concentration 123.457 nM; for fold induction at 0.37037 µM: Concentration 370.37 nM; for fold induction at 1.11111 µM: Concentration 1111.11 nM; for fold induction at 3.33333 µM: Concentration 3333.33 nM; for fold induction at 10 µM: Concentration 10000 nM; for EC50: three biological replicates, mean ± s.d., read-out: EC50 THP-1
Description: Cells were pelleted (150g, 10 min) and resuspended in the growth medium (40% conditioned) at a density of 1 × 10^6 cells ml^−1. The cell suspension was dispensed (50 µl each well) into a lidded white 96-well plate (BrandTech 781665). Test compounds or DMSO control were diluted in the growth medium and sterilized by filtering through 0.22-µm polyethersulfone (PES) membranes (Merck SLGP033RS). […] Upon cooling down to room temperature, 50 µl of reconstituted luciferase substrate (InvivoGen QUANTI-Luc) was added to each well via the injector of the plate reader (Molecular Devices SpectraMax i3x), and the luminescence output was recorded (4 s delay, 0.1 s integration). Raw signals were divided by the averaged signal of the DMSO-treated control wells and reported in relative luminescence unit (RLU). The dose–response curve of each replicate was fitted individually using the standard 4PL model (GraphPad Prism). The EC50 value of each compound was averaged from three independent experiments and reported as mean ± s.e.m.

[2] = target: T1, wild-type human STING LBD (hSTINGwt 138-379) (Homo sapiens, UniProt Q86WV6, H232R); test: Isothermal titration calorimetry (ITC), reverse titration; type: binding
T1 construct: SUMO (N, cleaved yes); made in house; host or cells: Escherichia coli BL21 (DE3)
Description: Escherichia coli BL21 (DE3) (Thermo Scientific EC0114) was transformed with a pET28a plasmid (Genscript) harbouring the codon-optimized sequence of SUMO-hSTINGwt (aa138-379). Transformed BL21 cells were inoculated into LB medium (50 µg ml^−1 kanamycin) and incubated at 180 rpm, 37 °C overnight. The overnight culture was then diluted (1:100 dilution) in 2× YT medium (50 µg ml^−1 kanamycin) and incubated at 180 rpm, 37 °C until optical density at 600 nm (OD600) reached 0.6 (approximately 3 h). The bacterial culture was then cooled to 16 °C, induced with 0.5 mM isopropyl 1-thio-D-galactopyranoside and incubated overnight at 180 rpm, 16 °C. The bacterial cells were pelleted at 4,000g for 30 min, resuspended in 20 ml of lysis buffer (25 mM HEPES pH 7.5, 150 mM NaCl, 20 mM imidazole and 2 mM TCEP supplied with 2 tablets of cOmplete mini EDTA-free protease inhibitors) and disrupted by sonication on ice. The total lysate was clarified by centrifugation at 22,000g for 30 min. The supernatant was collected and filtered through a 0.45-µm filter (Millipore SLHAR33SS). The clarified lysate was then incubated on a roller with 10 ml bed volume of Ni-NTA resin (Thermo Scientific 88223) at 4 °C for 1 h. The Ni-NTA resin was then packed in a column, flushed with 20 ml of wash buffer (25 mM HEPES pH 7.5, 150 mM NaCl and 20 mM imidazole) and eluted with 40 ml of elution buffer (25 mM HEPES pH 8.0, 150 mM NaCl and 250 mM imidazole). The eluted protein was concentrated to approximately 5 ml (Millipore Amicon 10 kDa molecular weight cut-off (MWCO)) and buffer-exchanged into storage buffer (25 mM HEPES pH 7.5 and 150 mM NaCl). TCEP was then added to a final concentration of 2 mM, and 250 units of SUMO protease (Merck SAE0067) were added. The cleavage reaction mixture was left to stand at 4 °C overnight until LC–MS analysis indicated the completion of the cleavage reaction. The cleavage mixture was incubated with 10 ml bed volume of Ni-NTA resin on a roller at 4 °C for 1 h and packed in a disposable column. The flowthrough was collected, and the resin was further flushed with 20 ml of wash buffer. The eluted fractions were combined, concentrated and further purified by size-exclusion chromatography (Cytiva, Superdex 200 Increase 10/300 GL). The purified protein in storage buffer was concentrated to 330 µM (dimer concentration) as determined by bicinchoninic acid (BCA) assay, aliquoted, flash-frozen in liquid nitrogen and stored at −80 °C for future use.
The binding constants of purified dimers were measured by ITC (Malvern Panalytical AutoITC200) in a reverse-titration format. Stock DMSO solutions of each dimer were dissolved in titration buffer (25 mM HEPES pH 7.5 and 150 mM NaCl) to a final concentration of 25 µM and added to the titration cell. The syringe was filled with 250 µM of purified STING in a matching buffer. Titration was performed at 25 °C with the following parameters: 750 rpm stirring, 0.2 µl initial injection followed by 2-µl injections of the […] every 120 s. Titration of STING protein into blank buffer was separately performed and subtracted from the raw data before the analysis. The background-subtracted titration curves were fitted with the built-in Origin software using the standard one-site model.
Extended Data Fig. 2 Isothermal titration calorimetry (ITC) data for binding constant measurements. Purified hSTINGwt138-379 (250 μM of homodimer) was titrated into each dimer (25 μM) dissolved in a matching buffer (25 mM HEPES pH 7.5, 150 mM NaCl) at 25 °C and 750 rpm stirring. Binding constants were reported as the average from duplicate measurements.

[3] = 25 °C, average of duplicate measurements, read-out: Kd hSTINGwt (binding constant, ITC)

T1 sequence (Q86WV6 138-379 H232R): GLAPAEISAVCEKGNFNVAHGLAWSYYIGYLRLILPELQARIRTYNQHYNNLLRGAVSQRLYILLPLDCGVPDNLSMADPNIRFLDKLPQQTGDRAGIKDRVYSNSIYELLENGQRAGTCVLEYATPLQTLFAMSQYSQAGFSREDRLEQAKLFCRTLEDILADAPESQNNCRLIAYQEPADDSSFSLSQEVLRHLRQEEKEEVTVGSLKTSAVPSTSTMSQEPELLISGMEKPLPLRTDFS

Row | SMILES | EC50 [1] [nM] | Raw readings ([1]; Conc 0.508053 nM) | Raw readings ([1]; Conc 1.52416 nM) | Raw readings ([1]; Conc 4.57247 nM) | Raw readings ([1]; Conc 13.7174 nM) | Raw readings ([1]; Conc 41.1523 nM) | Raw readings ([1]; Conc 123.457 nM) | Raw readings ([1]; Conc 370.37 nM) | Raw readings ([1]; Conc 1111.11 nM) | Raw readings ([1]; Conc 3333.33 nM) | Raw readings ([1]; Conc 10000 nM) | fold induction at 0.000508053 µM [1] | fold induction at 0.00152416 µM [1] | fold induction at 0.00457247 µM [1] | fold induction at 0.0137174 µM [1] | fold induction at 0.123457 µM [1] | fold induction at 0.37037 µM [1] | fold induction at 1.11111 µM [1] | fold induction at 3.33333 µM [1] | fold induction at 10 µM [1] | other results
1 | COc1cc2sc(C(=O)CCC(=O)O)cc2cc1CCCSc1cc2cc(C(=O)CCC(=O)O)sc2cc1OC [Compound D4] | > 10000 | 972 RLU and 1002 RLU and 881 RLU | 820 RLU and 522 RLU and 439 RLU | 921 RLU and 829 RLU and 583 RLU | 721 RLU and 644 RLU and 533 RLU | 942 RLU and 783 RLU and 992 RLU | 1083 RLU and 911 RLU and 1043 RLU | 775 RLU and 737 RLU and 829 RLU | 962 RLU and 1173 RLU and 1233 RLU | 1143 RLU and 434 RLU and 1233 RLU | 8812 RLU and 7169 RLU and 7929 RLU | 1.37 | 0.714 | 1.13 | 0.881 | 1.25 | 1.01 | 1.6 |  | 9.81 | fold induction at 0.0411523 µM [1]: 1.07
2 | COc1cc2sc(C(=O)CCC(=O)O)cc2cc1SCCCSc1cc2cc(C(=O)CCC(=O)O)sc2cc1OC [Compound D6] | > 10000 | 775 RLU and 627 RLU and 744 RLU | 1043 RLU and 675 RLU and 1023 RLU | 1143 RLU and 972 RLU and 595 RLU | 992 RLU and 713 RLU and 1033 RLU | 501 RLU and 595 RLU and 1053 RLU | 890 RLU and 1002 RLU and 706 RLU | 1023 RLU and 470 RLU | 689 RLU and 699 RLU and 1023 RLU | 595 RLU and 992 RLU and 806 RLU | 722 RLU and 829 RLU and 644 RLU | 0.858 | 0.923 | 1.33 | 0.975 | 1.37 |  | 0.956 |  | 1.13 | 

Now those with a lower EC50 [1], led by results:

Row | EC50 [1] [nM] | SMILES | Raw readings ([1]; Conc 0.508053 nM) | Raw readings ([1]; Conc 1.52416 nM) | Raw readings ([1]; Conc 4.57247 nM) | Raw readings ([1]; Conc 13.7174 nM) | Raw readings ([1]; Conc 41.1523 nM) | Raw readings ([1]; Conc 123.457 nM) | Raw readings ([1]; Conc 370.37 nM) | Raw readings ([1]; Conc 1111.11 nM) | Raw readings ([1]; Conc 3333.33 nM) | Raw readings ([1]; Conc 10000 nM) | fold induction at 0.000508053 µM [1] | fold induction at 0.00152416 µM [1] | fold induction at 0.00457247 µM [1] | fold induction at 0.0137174 µM [1] | fold induction at 0.123457 µM [1] | fold induction at 0.37037 µM [1] | fold induction at 1.11111 µM [1] | fold induction at 3.33333 µM [1] | fold induction at 10 µM [1] | other results
3 | 291 ± 22 | COc1cc2sc(C(=O)CCC(=O)O)cc2cc1Sc1cc2cc(C(=O)CCC(=O)O)sc2cc1OC [Compound D1] | 1353 RLU and 1053 RLU and 1124 RLU | 759 RLU and 868 RLU and 713 RLU | 1002 RLU and 721 RLU and 729 RLU | 1412 RLU and 851 RLU and 1233 RLU | 3959 RLU and 4405 RLU and 4421 RLU | 44787 RLU and 77696 RLU and 48848 RLU | 107911 RLU and 161465 RLU and 94323 RLU | 125522 RLU and 220455 RLU and 140381 RLU | 142408 RLU and 266422 RLU and 170286 RLU | 176790 RLU and 287573 RLU and 159056 RLU | 1.85 | 1.04 | 1.37 | 1.93 | 61.3 | 148 | 172 | 195 | 242 | fold induction at 0.0411523 µM [1]: 5.41; Kd [2, 3]: 65 nM; Kd ([2]; ITC run _01, read-out: Kd): 80 nM; Kd ([2]; ITC run _02, read-out: Kd): 50 nM
4 | 74 ± 12 | COc1cc2sc(C(=O)CCC(=O)O)cc2cc1CSc1cc2cc(C(=O)CCC(=O)O)sc2cc1OC [Compound D2] | 658 RLU and 1263 RLU and 1053 RLU | 564 RLU and 729 RLU and 601 RLU | 1074 RLU and 921 RLU and 1413 RLU | 6767 RLU and 16752 RLU and 12692 RLU | 51165 RLU and 121226 RLU and 61063 RLU | 102439 RLU and 196826 RLU and 100000 RLU | 111711 RLU and 237713 RLU and 134702 RLU | 126733 RLU and 297637 RLU and 176097 RLU | 139803 RLU and 327985 RLU and 173658 RLU | 138886 RLU and 307582 RLU and 153848 RLU | 0.9 | 0.771 | 1.47 |  |  | 153 | 173 | 191 |  | Kd [2, 3]: 46 nM; Kd ([2]; ITC run _01, read-out: Kd): 79 nM; Kd ([2]; ITC run _02, read-out: Kd): 13 nM
5 | 112 ± 6 | COc1cc2sc(C(=O)CCC(=O)O)cc2cc1SCSc1cc2cc(C(=O)CCC(=O)O)sc2cc1OC [Compound D5] | 1203 RLU and 820 RLU and 682 RLU | 644 RLU and 783 RLU and 699 RLU | 790 RLU and 1094 RLU and 558 RLU | 2256 RLU and 4162 RLU and 2105 RLU | 27829 RLU and 66900 RLU and 34361 RLU | 93770 RLU and 170286 RLU and 89246 RLU | 121713 RLU and 224782 RLU and 129344 RLU | 143643 RLU and 288417 RLU and 167064 RLU | 169624 RLU and 310357 RLU and 172333 RLU | 161133 RLU and 278063 RLU and 147917 RLU |  | 0.881 |  |  | 128 | 166 | 196 | 232 | 220 | Kd [2, 3]: 32 nM; Kd ([2]; ITC run _01, read-out: Kd): 33 nM; Kd ([2]; ITC run _02, read-out: Kd): 31 nM
